# Target: human GluN1/GluN2B NMDA receptors (Homo sapiens, UniProt Q05586+Q13224)
# Experiment: Cell-based calcium flux (FLIPR) assay on cloned human NR1/NR2B ion channels expressed in mammalian cells
# Conditions: standard assay; glutamate at ~EC80; FLIPR calcium flux
# Summary of the method: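 Calcium influx followed by FLIPR fluorescence after 5 min compound exposure and a further 5 min co-agonist challenge: 10 μM glycine with glutamate at ~EC80 (standard) or EC40 (HTS).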
# Chain of human GluN1/GluN2B NMDA receptors (Q13224 27-1484, other chains not shown): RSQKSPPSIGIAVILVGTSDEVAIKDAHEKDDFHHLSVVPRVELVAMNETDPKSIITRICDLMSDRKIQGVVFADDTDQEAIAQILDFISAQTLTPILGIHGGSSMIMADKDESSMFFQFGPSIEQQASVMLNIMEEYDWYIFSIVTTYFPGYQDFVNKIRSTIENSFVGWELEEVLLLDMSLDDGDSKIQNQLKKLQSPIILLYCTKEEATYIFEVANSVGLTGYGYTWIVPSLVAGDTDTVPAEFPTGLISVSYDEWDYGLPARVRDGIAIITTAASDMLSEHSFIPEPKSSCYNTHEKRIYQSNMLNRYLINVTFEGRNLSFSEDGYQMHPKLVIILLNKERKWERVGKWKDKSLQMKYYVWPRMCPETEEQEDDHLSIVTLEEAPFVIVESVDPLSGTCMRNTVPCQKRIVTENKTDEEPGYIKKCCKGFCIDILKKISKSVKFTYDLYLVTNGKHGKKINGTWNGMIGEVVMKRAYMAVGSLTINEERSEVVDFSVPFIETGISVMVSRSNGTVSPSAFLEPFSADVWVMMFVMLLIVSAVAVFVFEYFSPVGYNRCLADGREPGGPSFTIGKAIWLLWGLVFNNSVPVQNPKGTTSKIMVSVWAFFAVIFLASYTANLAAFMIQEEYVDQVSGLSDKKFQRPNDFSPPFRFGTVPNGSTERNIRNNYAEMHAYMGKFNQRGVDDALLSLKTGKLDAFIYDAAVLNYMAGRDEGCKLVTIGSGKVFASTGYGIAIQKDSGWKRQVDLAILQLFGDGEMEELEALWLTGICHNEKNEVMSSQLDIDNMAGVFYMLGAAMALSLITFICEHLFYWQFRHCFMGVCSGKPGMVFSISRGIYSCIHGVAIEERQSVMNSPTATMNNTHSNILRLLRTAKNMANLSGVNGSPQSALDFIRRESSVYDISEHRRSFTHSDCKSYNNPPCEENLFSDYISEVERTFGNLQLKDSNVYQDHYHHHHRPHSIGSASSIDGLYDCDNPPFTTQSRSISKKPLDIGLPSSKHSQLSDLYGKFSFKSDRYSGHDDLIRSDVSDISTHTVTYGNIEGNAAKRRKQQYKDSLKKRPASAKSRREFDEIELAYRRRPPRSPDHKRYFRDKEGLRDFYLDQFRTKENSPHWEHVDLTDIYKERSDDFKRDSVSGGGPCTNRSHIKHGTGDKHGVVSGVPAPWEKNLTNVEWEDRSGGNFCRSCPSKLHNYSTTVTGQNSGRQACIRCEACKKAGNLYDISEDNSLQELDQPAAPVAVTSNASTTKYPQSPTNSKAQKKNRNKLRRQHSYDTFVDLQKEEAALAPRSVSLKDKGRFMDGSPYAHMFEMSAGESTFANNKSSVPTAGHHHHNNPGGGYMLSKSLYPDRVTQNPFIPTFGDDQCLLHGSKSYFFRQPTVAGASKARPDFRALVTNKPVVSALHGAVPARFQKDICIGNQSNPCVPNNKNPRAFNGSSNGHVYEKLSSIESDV
row,Structure (SMILES),IC50
1,"FCCOc1cnc(OCc2cn(-c3ccc(F)c(Br)c3)nn2)nc1 [Example 618, 2-[[1-(3-Bromo-4-fluoro-phenyl)triazol-4-yl]methoxy]-5-(2-fluoroethoxy)pyrimidine]",0.006 µM
2,"Fc1ccc(-n2cc(COc3ncccn3)nn2)cc1Cl [Example 619, 2-[[1-(3-Chloro-4-fluoro-phenyl)triazol-4-yl]methoxy]pyrimidine]",0.217 µM
3,"Cc1cnc(OCc2cn(-c3ccc(F)c(Cl)c3)nn2)nc1 [Example 620, 2-[[1-(3-Chloro-4-fluoro-phenyl)triazol-4-yl]methoxy]-5-methyl-pyrimidine]",0.008 µM
4,"CCc1cnc(OCc2cn(-c3ccc(F)c(Cl)c3)nn2)nc1 [Example 621, 2-[[1-(3-Chloro-4-fluoro-phenyl)triazol-4-yl]methoxy]-5-ethyl-pyrimidine]",0.003 µM
5,"COCc1ccnc(OCc2cn(-c3ccc(F)c(Cl)c3)nn2)n1 [Example 622, 2-[[1-(3-Chloro-4-fluoro-phenyl)triazol-4-yl]methoxy]-4-(methoxymethyl)pyrimidine]",0.066 µM
6,"CC(C)c1ccnc(OCc2cn(-c3ccc(Cl)c(C(F)F)c3)nn2)n1 [Example 623, 2-[[1-[4-Chloro-3-(difluoromethyl)phenyl]triazol-4-yl]methoxy]-4-isopropyl-pyrimidine]",0.129 µM
7,"OCc1cnc(OCc2cn(-c3ccc(Cl)c(C(F)F)c3)nn2)nc1 [Example 624, [2-[[1-[4-Chloro-3-(difluoromethyl)phenyl]triazol-4-yl]methoxy]pyrimidin-5-yl]methanol]",0.02 µM
8,"OCc1ccnc(OCc2cn(-c3ccc(Cl)c(C(F)F)c3)nn2)n1 [Example 625, [2-[[1-[4-Chloro-3-(difluoromethyl)phenyl]triazol-4-yl]methoxy]pyrimidin-4-yl]methanol]",0.017 µM
9,"CC(C)(O)c1cnc(OCc2cn(-c3ccc(Cl)c(C(F)F)c3)nn2)nc1 [Example 626, 2-[2-[[1-[4-Chloro-3-(difluoromethyl)phenyl]triazol-4-yl]methoxy]pyrimidin-5-yl]propan-2-ol]",0.067 µM
10,"COCc1ccnc(OCc2cn(-c3ccc(Cl)c(C(F)F)c3)nn2)n1 [Example 627, 2-[[1-[4-Chloro-3-(difluoromethyl)phenyl]triazol-4-yl]methoxy]-4-(methoxymethyl)pyrimidine]",0.038 µM
11,"FC(F)c1ccnc(OCc2cn(-c3ccc(Cl)c(C(F)F)c3)nn2)n1 [Example 628, 2-[[1-[4-Chloro-3-(difluoromethyl)phenyl]triazol-4-yl]methoxy]-4-(difluoromethyl)pyrimidine]",0.042 µM
12,"CN(C)c1ccnc(OCc2cn(-c3ccc(Cl)c(C(F)F)c3)nn2)n1 [Example 629, 2-[[1-[4-Chloro-3-(difluoromethyl)phenyl]triazol-4-yl]methoxy]-N,N-dimethyl-pyrimidin-4-amine]",0.007 µM
13,"FC(F)c1cc(-n2cc(COc3ncc(C4CC4)cn3)nn2)ccc1Cl [Example 630, 2-[[1-[4-Chloro-3-(difluoromethyl)phenyl]triazol-4-yl]methoxy]-5-cyclopropyl-pyrimidine]",0.013 µM
14,"FC(F)c1cc(-n2cc(COc3nccc(C4CC4)n3)nn2)ccc1Cl [Example 631, 2-[[1-[4-Chloro-3-(difluoromethyl)phenyl]triazol-4-yl]methoxy]-4-cyclopropyl-pyrimidine]",0.042 µM
15,"Cc1cnc(OCc2cn(-c3ccc(Cl)c(C(F)F)c3)nn2)nc1N [Example 632, 2-[[1-[4-chloro-3-(difluoromethyl)phenyl]triazol-4-yl]methoxy]-5-methyl-pyrimidin-4-amine]",0.004 µM
16,"Cc1cnc(OCc2cn(-c3ccc(Cl)c(C(F)F)c3)nn2)nc1N(C)C [Example 633, 2-[[1-[4-Chloro-3-(difluoromethyl)phenyl]triazol-4-yl]methoxy]-N,N,5-trimethyl-pyrimidin-4-amine]",0.057 µM
17,"FC(F)c1cc(-n2cc(COc3nccc(N4CCCC4)n3)nn2)ccc1Cl [Example 634, 2-[[1-[4-Chloro-3-(difluoromethyl)phenyl]triazol-4-yl]methoxy]-4-pyrrolidin-1-yl-pyrimidine]",0.012 µM
18,"FC(F)c1cc(-n2cc(COc3nccc(N4CCCCC4)n3)nn2)ccc1Cl [Example 635, 2-[[1-[4-Chloro-3-(difluoromethyl)phenyl]triazol-4-yl]methoxy]-4-(1-piperidyl)pyrimidine]",0.169 µM
19,"FCCOc1cnc(OCc2cn(-c3ccc(Cl)c(C(F)F)c3)nn2)nc1 [Example 636, 2-[[1-[4-Chloro-3-(difluoromethyl)phenyl]triazol-4-yl]methoxy]-5-(2-fluoroethoxy)pyrimidine]",0.01 µM
20,"FCCCc1cnc(OCc2cn(-c3ccc(Cl)c(C(F)F)c3)nn2)nc1 [Example 637, 2-[[1-[4-Chloro-3-(difluoromethyl)phenyl]triazol-4-yl]methoxy]-5-(3-fluoropropyl)pyrimidine]",0.011 µM
21,"Cc1cnc(OCc2cn(-c3ccc(N4CCC4)c(C(F)F)c3)nn2)nc1 [Example 638, 2-((1-(4-(Azetidin-1-yl)-3-(difluoromethyl)phenyl)-1H-1,2,3-triazol-4-yl)methoxy)-5-methylpyrimidine]",0.511 µM

row,Structure (SMILES),IC50
1,"Cc1c(F)ccc(-n2cc(COc3ncc(C(C)C)cn3)nn2)c1F [Example 639, 2-[[1-(2,4-Difluoro-3-methyl-phenyl)triazol-4-yl]methoxy]-5-isopropyl-pyrimidine]",0.052 µM
2,"Cc1c(F)ccc(-n2cc(COc3nccc(C(C)C)n3)nn2)c1F [Example 640, 2-[[1-(2,4-Difluoro-3-methyl-phenyl)triazol-4-yl]methoxy]-4-isopropyl-pyrimidine]",1.98 µM
3,"Cc1c(F)ccc(-n2cc(COc3ncc(C(F)F)cn3)nn2)c1F [Example 641, 5-(Difluoromethyl)-2-[[1-(2,4-difluoro-3-methyl-phenyl)triazol-4-yl]methoxy]pyrimidine]",0.111 µM
4,"Cc1c(F)ccc(-n2cc(COc3nccc(C(F)F)n3)nn2)c1F [Example 642, 4-(Difluoromethyl)-2-[[1-(2,4-difluoro-3-methyl-phenyl)triazol-4-yl]methoxy]pyrimidine]",2.21 µM
5,"Cc1c(F)ccc(-n2cc(COc3ncc(C(F)(F)F)cn3)nn2)c1F [Example 643, 2-[[1-(2,4-Difluoro-3-methyl-phenyl)triazol-4-yl]methoxy]-5-(trifluoromethyl)pyrimidine]",0.2 µM
6,"Cc1c(F)ccc(-n2cc(COc3ncc(C(C)(C)O)cn3)nn2)c1F [Example 644, 2-[2-[[1-(2,4-Difluoro-3-methyl-phenyl)triazol-4-yl]methoxy]pyrimidin-5-yl]propan-2-ol]",0.967 µM
7,"COCc1ccnc(OCc2cn(-c3ccc(F)c(C)c3F)nn2)n1 [Example 645, 2-[[1-(2,4-Difluoro-3-methyl-phenyl)triazol-4-yl]methoxy]-4-(methoxymethyl)pyrimidine]",0.799 µM
8,"Cc1c(F)ccc(-n2cc(COc3ncc(OC(F)F)cn3)nn2)c1F [Example 646, 5-(Difluoromethoxy)-2-[[1-(2,4-difluoro-3-methyl-phenyl)triazol-4-yl]methoxy]pyrimidine]",0.099 µM
9,"Cc1c(F)ccc(-n2cc(COc3ncc(C4CC4)cn3)nn2)c1F [Example 647, 5-Cyclopropyl-2-[[1-(2,4-difluoro-3-methyl-phenyl)triazol-4-yl]methoxy]pyrimidine]",0.034 µM
10,"Cc1c(F)ccc(-n2cc(COc3nccc(C4CC4)n3)nn2)c1F [Example 648, 4-Cyclopropyl-2-[[1-(2,4-difluoro-3-methyl-phenyl)triazol-4-yl]methoxy]pyrimidine]",0.592 µM
11,"Cc1nc(OCc2cn(-c3ccc(F)c(C)c3F)nn2)ncc1F [Example 649, 2-[[1-(2,4-Difluoro-3-methyl-phenyl)triazol-4-yl]methoxy]-5-fluoro-4-methyl-pyrimidine]",0.152 µM
12,"Cc1nc(OCc2cn(-c3ccc(F)c(C)c3F)nn2)ncc1Cl [Example 650, 5-Chloro-2-[[1-(2,4-difluoro-3-methyl-phenyl)triazol-4-yl]methoxy]-4-methyl-pyrimidine]",0.005 µM
13,"Cc1cnc(OCc2cn(-c3ccc(F)c(C)c3F)nn2)nc1N [Example 651, 2-[[1-(2,4-Difluoro-3-methyl-phenyl)triazol-4-yl]methoxy]-5-methyl-pyrimidin-4-amine]",0.262 µM
14,"Fc1ccc(-n2cc(COc3ncc(C(F)(F)F)cn3)nn2)c(F)c1C(F)F [Example 652, 2-[[1-[3-(Difluoromethyl)-2,4-difluoro-phenyl]triazol-4-yl]methoxy]-5-(trifluoromethyl)pyrimidine]",0.112 µM
15,"Cc1cc(-n2cc(COc3ncc(Cl)cn3)nn2)c(F)cc1F [Example 653, 5-Chloro-2-[[1-(2,4-difluoro-5-methyl-phenyl)triazol-4-yl]methoxy]pyrimidine]",1.49 µM
16,"Cc1cnc(OCc2cn(-c3cc(C)c(F)cc3F)nn2)nc1 [Example 654, 2-[[1-(2,4-Difluoro-5-methyl-phenyl)triazol-4-yl]methoxy]-5-methyl-pyrimidine]",0.979 µM
17,"CCc1cnc(OCc2cn(-c3cc(C)c(F)cc3F)nn2)nc1 [Example 655, 2-[[1-(2,4-Difluoro-5-methyl-phenyl)triazol-4-yl]methoxy]-5-ethyl-pyrimidine]",0.507 µM
18,"Cc1cc(-n2cc(COc3ncc(C(F)F)cn3)nn2)c(F)cc1F [Example 656, 5-(Difluoromethyl)-2-[[1-(2,4-difluoro-5-methyl-phenyl)triazol-4-yl]methoxy]pyrimidine]",1.51 µM
19,"Cc1cc(-n2cc(COc3ncc(Cl)c(C)n3)nn2)c(F)cc1F [Example 657, 5-Chloro-2-[[1-(2,4-difluoro-5-methyl-phenyl)triazol-4-yl]methoxy]-4-methyl-pyrimidine]",0.781 µM
20,"Cc1cc(-n2cc(COc3ncc(C4CC4)cn3)nn2)c(F)cc1F [Example 658, 5-Cyclopropyl-2-[[1-(2,4-difluoro-5-methyl-phenyl)triazol-4-yl]methoxy]pyrimidine]",0.424 µM
21,"Cc1cccc(-n2cc(COc3ncc(Cl)cn3)nn2)n1 [Example 659, 5-Chloro-2-[[1-(6-methyl-2-pyridyl)triazol-4-yl]methoxy]pyrimidine]",> 2.99 µM
